These results are taken from PubChem BioAssay (NCI).

Molecules are shown by their SMILES.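 Grown in 96-well plates, cells were treated for 48 hours with each compound at five concentrations. Insufficient inhibition: endpoint recorded as highest concentration tested. Here, GI50 denotes the concentration required for 50% inhibition of growth. At the TGI there is no net growth.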 Where only a bound is given, the exact number is not on record here.

Test systems include SK-MEL-2 melanoma; DU-145 prostate; RXF 393 renal; LOX IMVI melanoma; NCI/ADR-RES ovarian; ACHN renal; UO-31 renal; EKVX NSCLC; HOP-62 NSCLC; HOP-92 NSCLC.
Holding throughout (assay): NCI-60 cell line screen, 48 h

Regarding `O=C(O)CCCCn1ccc(=O)[nH]c1=O`, the TGI with SK-MEL-2 melanoma, in the assay with DU-145 prostate, with RXF 393 renal, with LOX IMVI melanoma, in the assay on NCI/ADR-RES ovarian and in the assay with ACHN renal was greater than 100 µM in each case. Besides, the TGI in the assay with UO-31 renal, in the assay on EKVX NSCLC and in the assay with HOP-62 NSCLC was greater than 100 µM throughout.

Take `O=C([O][Hg][c]1ccccc1)c1ccccc1`: the GI50 with SK-MEL-2 melanoma was 1.35 µM; with HOP-92 NSCLC it was 1.35 µM; in the assay on DU-145 prostate, 1.95 µM; in the assay on RXF 393 renal it was 1.24 µM; with LOX IMVI melanoma, 1.38 µM; in the assay with NCI/ADR-RES ovarian, 3.32 µM. Besides, the GI50 with ACHN renal was 1.57 µM; in the assay on UO-31 renal, 1.47 µM; in the assay with HOP-62 NSCLC, 2.16 µM. Moreover, the TGI is 2.91 µM in the assay on SK-MEL-2 melanoma; 2.72 µM in the assay with HOP-92 NSCLC; 4.13 µM in the assay on DU-145 prostate; 2.56 µM in the assay with RXF 393 renal; 3.05 µM with LOX IMVI melanoma; greater than 27.4 µM in the assay with NCI/ADR-RES ovarian. For the same compound, the TGI was 2.99 µM in the assay on ACHN renal, 2.89 µM with UO-31 renal and 4.84 µM in the assay on HOP-62 NSCLC.

Take `COc1cc(OC)cc(Oc2cnc3cc(N)cc(N)c3n2)c1`: the GI50 in the assay with SK-MEL-2 melanoma was 19.7 µM; with DU-145 prostate, 17.6 µM; in the assay with RXF 393 renal it was 15.4 µM; in the assay with LOX IMVI melanoma, 11.5 µM; in the assay with NCI/ADR-RES ovarian, 16.1 µM; in the assay with ACHN renal, 15.8 µM. For the same compound, the GI50 was 22.3 µM in the assay on UO-31 renal, 18.5 µM in the assay on EKVX NSCLC and 16.9 µM in the assay on HOP-62 NSCLC. For the same compound, the TGI in the assay on SK-MEL-2 melanoma was found to be 43.3 µM; in the assay on DU-145 prostate it was 38.5 µM; in the assay with RXF 393 renal it was 29 µM; in the assay with LOX IMVI melanoma, 24 µM; in the assay with NCI/ADR-RES ovarian, 43.5 µM; in the assay on ACHN renal, 33.3 µM. Besides, the TGI was 46.8 µM in the assay with UO-31 renal, 46.2 µM in the assay with EKVX NSCLC and 36.6 µM in the assay on HOP-62 NSCLC.

As to `COc1ccc(-c2cc(/C=C3\C(=O)Nc4cc(Cl)ccc43)[nH]n2)cc1`, the GI50 in the assay with SK-MEL-2 melanoma was 4.35 µM; in the assay on HOP-92 NSCLC, 2.33 µM; in the assay on DU-145 prostate it was 3.52 µM; in the assay with RXF 393 renal, 2.03 µM; with LOX IMVI melanoma it was 4.36 µM; in the assay on NCI/ADR-RES ovarian, 2.79 µM. The GI50 with ACHN renal is 5.49 µM; in the assay on UO-31 renal, 3.49 µM; in the assay on HOP-62 NSCLC it was 2.75 µM. The TGI with SK-MEL-2 melanoma was greater than 100 µM; in the assay on HOP-92 NSCLC, 56.9 µM; in the assay with DU-145 prostate, 21.4 µM; in the assay with RXF 393 renal, 7.36 µM; with LOX IMVI melanoma it was greater than 100 µM; in the assay with NCI/ADR-RES ovarian, 17.5 µM. Also, the results for the TGI in the assay with ACHN renal, in the assay with UO-31 renal and with HOP-62 NSCLC were greater than 100 µM, greater than 100 µM and 85.9 µM, respectively.

Consider `O=[N+]([O-])c1ccc(/C=C/c2nc3ccc(Cl)cc3[nH]2)cc1`, for which the GI50 in the assay with SK-MEL-2 melanoma was greater than 100 µM; in the assay with DU-145 prostate it was 19.4 µM; in the assay with RXF 393 renal, 71.7 µM; in the assay with LOX IMVI melanoma, 27.2 µM; with NCI/ADR-RES ovarian, 15 µM; in the assay on ACHN renal, 17.8 µM. The values for the GI50 in the assay with UO-31 renal, with EKVX NSCLC and in the assay on HOP-62 NSCLC were 30 µM, greater than 100 µM and 37.7 µM, respectively. Moreover, the TGI was greater than 100 µM with SK-MEL-2 melanoma; 66.6 µM in the assay on DU-145 prostate; greater than 100 µM in the assay on RXF 393 renal; greater than 100 µM in the assay with LOX IMVI melanoma; greater than 100 µM in the assay on NCI/ADR-RES ovarian; 50.9 µM in the assay on ACHN renal. Also, the TGI in the assay on UO-31 renal, with EKVX NSCLC and in the assay on HOP-62 NSCLC was greater than 100 µM each time.

Turning to `N#CC(C#N)=CNCCN1CCN(C=C(C#N)C#N)CC1`, the TGI in the assay on SK-MEL-2 melanoma, with HOP-92 NSCLC, with DU-145 prostate, in the assay with LOX IMVI melanoma, with NCI/ADR-RES ovarian and in the assay with ACHN renal was greater than 100 µM in each case. Also, the TGI in the assay on UO-31 renal, with EKVX NSCLC and with HOP-62 NSCLC was greater than 100 µM in each case.

In the case of `C[C@@H](N)COc1ccc(-c2cnc3ccc(N[C@H](C)c4cccc(F)c4)nn23)cc1`, the GI50 was 1.99 µM in the assay with SK-MEL-2 melanoma; 0.338 µM in the assay with HOP-92 NSCLC; 3.01 µM with DU-145 prostate; 1.42 µM in the assay on LOX IMVI melanoma; 2.43 µM in the assay with NCI/ADR-RES ovarian; 2.15 µM with ACHN renal. Also, the GI50 with UO-31 renal was 1.94 µM; in the assay on EKVX NSCLC, 2.71 µM; with HOP-62 NSCLC, 2.29 µM. For the same compound, the TGI in the assay with SK-MEL-2 melanoma is 4.48 µM; in the assay with HOP-92 NSCLC, 1.89 µM; in the assay with DU-145 prostate, 11.4 µM; in the assay on LOX IMVI melanoma, 2.72 µM; in the assay on NCI/ADR-RES ovarian it was 7.12 µM; in the assay on ACHN renal it was 6.35 µM. Besides, the TGI was found to be 7.81 µM with UO-31 renal, 12.6 µM with EKVX NSCLC and 11.9 µM in the assay on HOP-62 NSCLC.

For the compound `O=C1/C(=C/c2ccc([N+](=O)[O-])s2)Oc2cc(Cl)ccc21`, the GI50 with SK-MEL-2 melanoma was 1.45 µM; with HOP-92 NSCLC, 0.631 µM; in the assay with DU-145 prostate, 3.81 µM; with RXF 393 renal, 1.04 µM; in the assay with NCI/ADR-RES ovarian it was 3.02 µM; in the assay with ACHN renal it was 0.475 µM. Besides, the results for the GI50 in the assay on UO-31 renal and in the assay with HOP-62 NSCLC were 0.317 µM and 7.9 µM, respectively. Further, the TGI in the assay with SK-MEL-2 melanoma is 3.33 µM; with HOP-92 NSCLC, 2.53 µM; in the assay on DU-145 prostate it was greater than 100 µM; in the assay on RXF 393 renal, 2.63 µM; in the assay with NCI/ADR-RES ovarian it was greater than 100 µM; with ACHN renal it was 1.84 µM. The TGI with UO-31 renal is 1.22 µM; in the assay with HOP-62 NSCLC, greater than 100 µM.

As for `Cc1ccc([P+](Cc2ccccc2)(c2ccccc2)c2ccccc2)cc1`, the GI50 was 2.35 µM in the assay with SK-MEL-2 melanoma; 3.62 µM with DU-145 prostate; 3.68 µM with RXF 393 renal; 2.48 µM in the assay on LOX IMVI melanoma; 47.8 µM with NCI/ADR-RES ovarian; 3.95 µM in the assay with ACHN renal. The GI50 in the assay with UO-31 renal was 10.3 µM; with HOP-62 NSCLC it was 4.25 µM. The TGI with SK-MEL-2 melanoma was 5.63 µM; with DU-145 prostate, greater than 100 µM; in the assay on RXF 393 renal, 41.1 µM; with LOX IMVI melanoma, 14.3 µM; in the assay with NCI/ADR-RES ovarian it was greater than 100 µM; with ACHN renal, greater than 100 µM. Also, the TGI in the assay on UO-31 renal is 67.7 µM; with HOP-62 NSCLC it was greater than 100 µM.

As for `O=Cc1cccc2ccc3ccccc3c12`, the TGI in the assay on SK-MEL-2 melanoma was 38 µM; in the assay with DU-145 prostate it was greater than 100 µM; in the assay on RXF 393 renal, 61 µM; in the assay with LOX IMVI melanoma, 45.9 µM; with NCI/ADR-RES ovarian, 38.3 µM; in the assay on ACHN renal, 83.8 µM. Besides, the TGI was greater than 100 µM with UO-31 renal and 52.4 µM in the assay with HOP-62 NSCLC.

For `Cc1ccc([Se](=C(C(=O)c2ccccc2)C(=O)c2ccccc2)c2ccc(C)cc2)cc1`, the TGI in the assay with SK-MEL-2 melanoma is greater than 100 µM; in the assay with HOP-92 NSCLC, 53.4 µM; in the assay on DU-145 prostate it was greater than 100 µM; in the assay on RXF 393 renal, greater than 100 µM; in the assay on NCI/ADR-RES ovarian, greater than 100 µM; in the assay on ACHN renal, 77.8 µM. The TGI in the assay on UO-31 renal and in the assay on HOP-62 NSCLC was greater than 100 µM in each case.

Turning to `CCCCCCCCCCCCCC[n+]1ccccc1`, the GI50 in the assay on SK-MEL-2 melanoma is 0.592 µM; in the assay on HOP-92 NSCLC, 0.144 µM; with DU-145 prostate it was 1.17 µM; with NCI/ADR-RES ovarian, 8.65 µM; in the assay with ACHN renal, 1.27 µM; in the assay on UO-31 renal, 1.42 µM. The TGI is 2.19 µM in the assay on SK-MEL-2 melanoma; 0.841 µM with HOP-92 NSCLC; 2.85 µM in the assay with DU-145 prostate; 46.8 µM in the assay on NCI/ADR-RES ovarian; 6.18 µM in the assay with ACHN renal; 4.82 µM in the assay with UO-31 renal.

As to `COc1ccc(/C=C/C(=O)c2c(O)ccc3c(C)c(C(=O)O)oc23)cc1`, the GI50 in the assay with DU-145 prostate is greater than 100 µM; in the assay on RXF 393 renal, 55.5 µM; in the assay on LOX IMVI melanoma it was 35.6 µM; in the assay with NCI/ADR-RES ovarian it was 61.9 µM; with ACHN renal, greater than 100 µM; in the assay on UO-31 renal it was greater than 100 µM. For the same compound, the GI50 in the assay with EKVX NSCLC is greater than 100 µM; in the assay on HOP-62 NSCLC, 89.9 µM. Besides, the TGI in the assay on DU-145 prostate, with RXF 393 renal, in the assay on LOX IMVI melanoma, in the assay with NCI/ADR-RES ovarian, with ACHN renal and with UO-31 renal was greater than 100 µM each time. Further, the TGI in the assay on EKVX NSCLC and in the assay with HOP-62 NSCLC was greater than 100 µM each time.

For `O=C(CN1CCN(Cc2ccccc2Cl)CC1)NC1CC(=O)c2c(Br)sc(Br)c21` (stereo not drawn), the GI50 with SK-MEL-2 melanoma was 15.7 µM; in the assay with HOP-92 NSCLC, 14.1 µM; in the assay with DU-145 prostate, 18.8 µM; in the assay on LOX IMVI melanoma, 18.6 µM; in the assay on NCI/ADR-RES ovarian, 19.6 µM; in the assay on ACHN renal, 35.1 µM. Also, the GI50 in the assay with UO-31 renal was 17.4 µM; with EKVX NSCLC it was 21.7 µM. In addition, the TGI was 31.4 µM in the assay on SK-MEL-2 melanoma; 31.6 µM in the assay with HOP-92 NSCLC; 33.6 µM with DU-145 prostate; 35.8 µM in the assay on LOX IMVI melanoma; 41.9 µM with NCI/ADR-RES ovarian; greater than 100 µM in the assay on ACHN renal. Besides, the results for the TGI in the assay with UO-31 renal and with EKVX NSCLC were 31.8 µM and 42 µM, respectively.

With `COC(=O)Oc1nn(C(=O)OC)c(=O)c2ccccc12`, the TGI in the assay on SK-MEL-2 melanoma, in the assay with DU-145 prostate, with LOX IMVI melanoma, in the assay with NCI/ADR-RES ovarian, in the assay with ACHN renal and in the assay on UO-31 renal was greater than 100 µM each time. For the same compound, the TGI with EKVX NSCLC and in the assay on HOP-62 NSCLC was greater than 100 µM each time.
